Assays:
[1] = target: PKAC-beta (Homo sapiens, UniProt P22694); assay: biochemical; conditions: read-out: %Ctrl @ 2000nM
[2] = target: EGFR(S752-I759del) (Homo sapiens, UniProt P00533, DEL752-759); assay: biochemical; conditions: read-out: %Ctrl @ 2000nM
[3] = target: MLCK (Homo sapiens, UniProt Q32MK0); assay: biochemical; conditions: read-out: %Ctrl @ 2000nM
[4] = target: IKK-epsilon (Homo sapiens, UniProt Q14164); assay: biochemical; conditions: read-out: %Ctrl @ 2000nM
[5] = target: ROS1 (Homo sapiens, UniProt P08922); assay: biochemical; conditions: read-out: %Ctrl @ 2000nM
[6] = target: MYLK (Homo sapiens, UniProt Q15746); assay: biochemical; conditions: read-out: %Ctrl @ 2000nM
[7] = test system: A375 cells; conditions: 4 μM, 48 h
[8] = target: MYO3B (Homo sapiens, UniProt Q8WXR4); assay: biochemical; conditions: read-out: %Ctrl @ 2000nM
[9] = target: SNRK (Homo sapiens, UniProt Q9NRH2); assay: biochemical; conditions: read-out: %Ctrl @ 2000nM
[10] = target: FES (Homo sapiens, UniProt P07332); assay: biochemical; conditions: read-out: %Ctrl @ 2000nM
[11] = target: MTOR (Homo sapiens, UniProt P42345); assay: biochemical; conditions: read-out: %Ctrl @ 2000nM
[12] = target: RSK4(Kin.Dom.1-N-terminal) (Homo sapiens, UniProt Q9UK32); assay: biochemical; conditions: read-out: %Ctrl @ 2000nM
[13] = target: GSK3B (Homo sapiens, UniProt P49841); assay: biochemical; conditions: read-out: %Ctrl @ 2000nM
[14] = target: OSR1 (Homo sapiens, UniProt O95747); assay: biochemical; conditions: read-out: %Ctrl @ 2000nM
[15] = target: PIK3CA (Homo sapiens, UniProt P42336); assay: biochemical; conditions: read-out: %Ctrl @ 2000nM
[16] = target: CSNK1G1 (Homo sapiens, UniProt Q9HCP0); assay: biochemical; conditions: read-out: %Ctrl @ 2000nM
[17] = target: STK35 (Homo sapiens, UniProt Q8TDR2); assay: biochemical; conditions: read-out: %Ctrl @ 2000nM
[18] = target: CDK9 (Homo sapiens, UniProt P50750); assay: biochemical; conditions: read-out: %Ctrl @ 2000nM
[19] = test system: FLT3(ITD,F691L)
[20] = target: FGFR1 (Homo sapiens, UniProt P11362); assay: biochemical; conditions: read-out: %Ctrl @ 2000nM
[21] = target: PIK3C2G (Homo sapiens, UniProt O75747); assay: biochemical; conditions: read-out: %Ctrl @ 2000nM
[22] = target: TLK2 (Homo sapiens, UniProt Q86UE8); assay: biochemical; conditions: read-out: %Ctrl @ 2000nM
[23] = target: MAPKAPK5 (Homo sapiens, UniProt Q8IW41); assay: biochemical; conditions: read-out: %Ctrl @ 2000nM
[24] = target: MRCKA (Homo sapiens, UniProt Q5VT25); assay: biochemical; conditions: read-out: %Ctrl @ 2000nM
[25] = target: PIM3 (Homo sapiens, UniProt Q86V86); assay: biochemical; conditions: read-out: %Ctrl @ 2000nM
[26] = target: ALK(C1156Y) (Homo sapiens, UniProt Q9UM73, C1156Y); assay: biochemical; conditions: read-out: %Ctrl @ 2000nM
[27] = target: FLT4 (Homo sapiens, UniProt P35916); assay: biochemical; conditions: read-out: %Ctrl @ 2000nM
[28] = test system: 786-O cells
[29] = target: CSF1R-autoinhibited (Homo sapiens, UniProt P07333); assay: biochemical; conditions: read-out: %Ctrl @ 2000nM
[30] = target: KIT(D816H) (Homo sapiens, UniProt P10721, D816H); assay: biochemical; conditions: read-out: %Ctrl @ 2000nM
[31] = target: ROCK2 (Homo sapiens, UniProt O75116); assay: biochemical; conditions: read-out: %Ctrl @ 2000nM
[32] = target: NEK3 (Homo sapiens, UniProt P51956); assay: biochemical; conditions: read-out: %Ctrl @ 2000nM
[33] = target: RSK2(Kin.Dom.1-N-terminal) (Homo sapiens, UniProt P51812); assay: biochemical; conditions: read-out: %Ctrl @ 2000nM
[34] = target: CAMK2D (Homo sapiens, UniProt Q13557); assay: biochemical; conditions: read-out: %Ctrl @ 2000nM
[35] = target: BMPR1B (Homo sapiens, UniProt O00238); assay: biochemical; conditions: read-out: %Ctrl @ 2000nM
[36] = target: DRAK2 (Homo sapiens, UniProt O94768); assay: biochemical; conditions: read-out: %Ctrl @ 2000nM
[37] = target: PRP4 (Homo sapiens, UniProt Q13523); assay: biochemical; conditions: read-out: %Ctrl @ 2000nM
[38] = target: KIT (Homo sapiens, UniProt P10721); assay: biochemical; conditions: read-out: %Ctrl @ 2000nM
[39] = target: STK39 (Homo sapiens, UniProt Q9UEW8); assay: biochemical; conditions: read-out: %Ctrl @ 2000nM

Sequence of IKK-epsilon (Q14164 whole entry): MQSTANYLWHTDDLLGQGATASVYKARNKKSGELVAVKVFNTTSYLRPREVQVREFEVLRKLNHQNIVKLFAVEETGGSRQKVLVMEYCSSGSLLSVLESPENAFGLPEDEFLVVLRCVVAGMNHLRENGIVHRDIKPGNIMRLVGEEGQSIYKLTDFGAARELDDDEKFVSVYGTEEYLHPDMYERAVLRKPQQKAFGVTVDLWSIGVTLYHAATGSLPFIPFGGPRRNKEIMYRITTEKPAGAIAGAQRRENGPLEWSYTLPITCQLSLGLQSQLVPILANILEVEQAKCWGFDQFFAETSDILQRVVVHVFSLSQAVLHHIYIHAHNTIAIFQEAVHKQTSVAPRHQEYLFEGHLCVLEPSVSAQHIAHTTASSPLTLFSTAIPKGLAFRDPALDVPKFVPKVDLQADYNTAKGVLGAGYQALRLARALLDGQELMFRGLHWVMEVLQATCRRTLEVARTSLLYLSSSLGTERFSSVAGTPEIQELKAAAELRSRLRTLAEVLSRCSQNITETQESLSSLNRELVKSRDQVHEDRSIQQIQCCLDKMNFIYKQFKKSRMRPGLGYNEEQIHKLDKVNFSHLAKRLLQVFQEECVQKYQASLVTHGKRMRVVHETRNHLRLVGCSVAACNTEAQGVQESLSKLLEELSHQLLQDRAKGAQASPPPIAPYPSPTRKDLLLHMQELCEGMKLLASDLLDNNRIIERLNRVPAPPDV
Sequence of PRP4 (Q13523 whole entry): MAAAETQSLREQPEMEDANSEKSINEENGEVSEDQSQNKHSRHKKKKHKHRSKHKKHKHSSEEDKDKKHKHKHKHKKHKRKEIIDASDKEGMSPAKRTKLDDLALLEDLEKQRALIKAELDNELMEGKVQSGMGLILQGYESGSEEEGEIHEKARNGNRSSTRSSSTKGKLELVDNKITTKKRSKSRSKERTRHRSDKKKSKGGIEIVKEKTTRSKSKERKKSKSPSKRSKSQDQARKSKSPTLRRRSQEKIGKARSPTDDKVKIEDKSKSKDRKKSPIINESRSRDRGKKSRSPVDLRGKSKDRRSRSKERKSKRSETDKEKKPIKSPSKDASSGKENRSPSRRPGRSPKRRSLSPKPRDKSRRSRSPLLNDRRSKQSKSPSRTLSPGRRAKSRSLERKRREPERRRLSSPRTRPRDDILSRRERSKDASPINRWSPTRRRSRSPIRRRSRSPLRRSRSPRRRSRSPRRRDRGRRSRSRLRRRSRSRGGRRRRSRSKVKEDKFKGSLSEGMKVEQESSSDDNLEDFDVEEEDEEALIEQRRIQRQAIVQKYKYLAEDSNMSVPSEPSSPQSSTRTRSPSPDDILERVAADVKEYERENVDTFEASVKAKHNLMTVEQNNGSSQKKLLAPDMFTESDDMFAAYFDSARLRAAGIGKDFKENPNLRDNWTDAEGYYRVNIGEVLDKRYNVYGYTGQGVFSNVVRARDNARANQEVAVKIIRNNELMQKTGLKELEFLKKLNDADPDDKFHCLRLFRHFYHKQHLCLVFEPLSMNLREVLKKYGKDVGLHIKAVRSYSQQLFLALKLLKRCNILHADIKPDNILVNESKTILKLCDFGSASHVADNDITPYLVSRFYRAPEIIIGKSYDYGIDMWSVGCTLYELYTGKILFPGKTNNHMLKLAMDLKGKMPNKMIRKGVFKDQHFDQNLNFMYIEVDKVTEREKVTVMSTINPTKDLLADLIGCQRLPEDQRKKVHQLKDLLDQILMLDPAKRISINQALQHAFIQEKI
Sequence of KIT(D816H) (P10721 26-976 D816H): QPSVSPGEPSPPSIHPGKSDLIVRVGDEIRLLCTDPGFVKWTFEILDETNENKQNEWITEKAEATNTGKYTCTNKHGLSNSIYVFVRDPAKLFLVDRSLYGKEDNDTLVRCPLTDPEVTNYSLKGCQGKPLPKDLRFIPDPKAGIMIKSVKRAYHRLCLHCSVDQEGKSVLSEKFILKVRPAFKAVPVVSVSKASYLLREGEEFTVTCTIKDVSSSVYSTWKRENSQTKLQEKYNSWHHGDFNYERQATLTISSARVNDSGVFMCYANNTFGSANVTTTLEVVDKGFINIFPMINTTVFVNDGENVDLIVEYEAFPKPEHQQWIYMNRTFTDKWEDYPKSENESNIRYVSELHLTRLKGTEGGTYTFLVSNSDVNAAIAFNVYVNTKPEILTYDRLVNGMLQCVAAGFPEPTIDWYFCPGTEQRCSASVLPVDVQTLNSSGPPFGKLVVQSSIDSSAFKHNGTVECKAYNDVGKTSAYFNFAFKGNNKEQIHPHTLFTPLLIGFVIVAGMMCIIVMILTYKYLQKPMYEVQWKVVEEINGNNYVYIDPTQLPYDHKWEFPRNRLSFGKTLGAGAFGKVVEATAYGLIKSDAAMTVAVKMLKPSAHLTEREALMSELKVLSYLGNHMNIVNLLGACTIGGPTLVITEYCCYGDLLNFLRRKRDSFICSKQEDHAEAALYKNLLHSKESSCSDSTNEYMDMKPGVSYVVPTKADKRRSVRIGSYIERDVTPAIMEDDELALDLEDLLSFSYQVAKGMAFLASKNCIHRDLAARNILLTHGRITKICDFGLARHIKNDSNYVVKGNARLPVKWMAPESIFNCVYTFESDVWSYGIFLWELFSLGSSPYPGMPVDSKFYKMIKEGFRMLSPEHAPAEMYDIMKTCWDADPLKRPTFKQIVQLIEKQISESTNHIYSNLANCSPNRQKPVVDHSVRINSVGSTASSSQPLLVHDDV
Sequence of ROCK2 (O75116 whole entry): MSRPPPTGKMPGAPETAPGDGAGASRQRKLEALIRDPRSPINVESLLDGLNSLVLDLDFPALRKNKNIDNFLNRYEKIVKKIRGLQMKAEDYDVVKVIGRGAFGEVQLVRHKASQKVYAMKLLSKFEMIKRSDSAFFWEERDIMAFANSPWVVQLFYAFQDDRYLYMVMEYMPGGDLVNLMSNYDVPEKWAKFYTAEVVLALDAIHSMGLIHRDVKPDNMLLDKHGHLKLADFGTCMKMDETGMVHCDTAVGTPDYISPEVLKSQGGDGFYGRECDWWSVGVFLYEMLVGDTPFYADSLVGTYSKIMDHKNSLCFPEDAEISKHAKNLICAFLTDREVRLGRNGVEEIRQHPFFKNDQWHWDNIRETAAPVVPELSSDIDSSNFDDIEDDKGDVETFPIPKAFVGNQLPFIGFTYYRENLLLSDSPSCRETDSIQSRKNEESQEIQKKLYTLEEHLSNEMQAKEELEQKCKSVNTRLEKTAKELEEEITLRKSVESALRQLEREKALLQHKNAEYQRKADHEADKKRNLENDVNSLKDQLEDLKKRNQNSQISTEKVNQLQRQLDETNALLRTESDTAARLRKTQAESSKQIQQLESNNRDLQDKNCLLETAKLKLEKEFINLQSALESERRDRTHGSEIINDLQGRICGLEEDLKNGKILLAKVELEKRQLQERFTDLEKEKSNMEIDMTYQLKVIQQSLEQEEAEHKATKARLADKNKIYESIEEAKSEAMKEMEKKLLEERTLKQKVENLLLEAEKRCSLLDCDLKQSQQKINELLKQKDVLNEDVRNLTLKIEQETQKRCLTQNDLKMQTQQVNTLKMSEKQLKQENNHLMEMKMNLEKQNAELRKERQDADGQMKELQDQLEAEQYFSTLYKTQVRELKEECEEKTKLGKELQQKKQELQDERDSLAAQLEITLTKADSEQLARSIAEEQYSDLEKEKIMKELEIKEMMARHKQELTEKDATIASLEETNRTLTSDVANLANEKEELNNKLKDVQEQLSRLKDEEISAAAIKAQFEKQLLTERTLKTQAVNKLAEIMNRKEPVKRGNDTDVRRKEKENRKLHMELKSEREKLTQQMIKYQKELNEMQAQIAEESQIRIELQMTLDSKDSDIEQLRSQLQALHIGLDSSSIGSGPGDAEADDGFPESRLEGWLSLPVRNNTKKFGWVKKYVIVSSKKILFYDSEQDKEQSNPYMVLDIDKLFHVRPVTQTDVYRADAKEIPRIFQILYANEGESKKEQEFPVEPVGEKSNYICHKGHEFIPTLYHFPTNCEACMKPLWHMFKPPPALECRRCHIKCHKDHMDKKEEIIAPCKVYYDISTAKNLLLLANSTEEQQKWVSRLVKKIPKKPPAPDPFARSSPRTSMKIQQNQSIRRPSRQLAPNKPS
Sequence of CDK9 (P50750 whole entry): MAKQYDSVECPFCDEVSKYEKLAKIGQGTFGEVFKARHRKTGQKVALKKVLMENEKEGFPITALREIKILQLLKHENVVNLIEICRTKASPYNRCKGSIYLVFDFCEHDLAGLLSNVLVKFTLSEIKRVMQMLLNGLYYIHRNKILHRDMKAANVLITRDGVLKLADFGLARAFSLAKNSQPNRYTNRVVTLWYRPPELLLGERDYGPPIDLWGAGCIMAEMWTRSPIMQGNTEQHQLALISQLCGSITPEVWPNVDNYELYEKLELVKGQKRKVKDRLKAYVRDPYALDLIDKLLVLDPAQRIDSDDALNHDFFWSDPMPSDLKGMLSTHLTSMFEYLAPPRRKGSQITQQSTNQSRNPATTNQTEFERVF
Sequence of CSNK1G1 (Q9HCP0 whole entry): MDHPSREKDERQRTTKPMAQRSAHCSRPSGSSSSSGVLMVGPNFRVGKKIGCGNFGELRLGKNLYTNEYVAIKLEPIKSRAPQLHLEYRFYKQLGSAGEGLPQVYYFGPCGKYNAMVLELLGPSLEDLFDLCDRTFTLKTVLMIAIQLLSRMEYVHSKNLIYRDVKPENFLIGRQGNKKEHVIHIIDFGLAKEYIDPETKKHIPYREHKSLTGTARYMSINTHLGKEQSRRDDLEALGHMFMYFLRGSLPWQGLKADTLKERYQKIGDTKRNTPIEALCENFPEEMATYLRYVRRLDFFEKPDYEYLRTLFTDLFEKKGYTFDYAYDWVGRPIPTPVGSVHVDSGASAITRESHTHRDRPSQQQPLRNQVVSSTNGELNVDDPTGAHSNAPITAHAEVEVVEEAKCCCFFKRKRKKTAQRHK
Sequence of KIT (P10721 26-976): as the sequence (P10721 26-976 D816H) above, with H791D counted along it

## CC(C)COC(=O)c1[nH]c2ccc(F)cc2c1-c1cn(CC2CCN(CCNS(=O)(=O)c3ccc(CC(C)C)cc3)CC2)nn1 [AB668, isobutyl 5-fluoro-3-(1-((1-(2-((4-isobutylphenyl)sulfonamido)ethyl)piperidin-4-yl)methyl)-1H-1,2,3-triazol-4-yl)-1H-indole-2-carboxylate]
[1]
  remaining activity at 2 µM: 78%
[2]
  remaining activity at 2 µM: 80%
[3]
  remaining activity at 2 µM: 100%
[4]
  remaining activity at 2 µM: 76%
[5]
  remaining activity at 2 µM: 89%
[6]
  remaining activity at 2 µM: 81%
[7]
  proliferation, cell death and apoptosis: induced significant cell proliferation arrest associated with cell death and apoptosis
[8]
  remaining activity at 2 µM: 100%
[9]
  remaining activity at 2 µM: 100%
[10]
  remaining activity at 2 µM: 91%
[11]
  remaining activity at 2 µM: 92%
[12]
  remaining activity at 2 µM: 88%
[13]
  remaining activity at 2 µM: 100%
[14]
  remaining activity at 2 µM: 81%
[15]
  remaining activity at 2 µM: 82%
[16]
  remaining activity at 2 µM: 90%
[17]
  remaining activity at 2 µM: 89%
[18]
  remaining activity at 2 µM: 93%
[19]
  %Ctrl @ 2000nM: 96%
[20]
  remaining activity at 2 µM: 81%
[21]
  remaining activity at 2 µM: 100%
[22]
  remaining activity at 2 µM: 88%
[23]
  remaining activity at 2 µM: 95%
[24]
  remaining activity at 2 µM: 84%
[25]
  remaining activity at 2 µM: 85%
[26]
  remaining activity at 2 µM: 81%
[27]
  remaining activity at 2 µM: 98%
[28]
  NES: Asymmetric localization of PCP proteins: -1.441
  NES: G1/S Transition: -1.326
  NES: G2/M Checkpoints: -1.7
  NES: G2/M Transition: -1.306
  NES: Infection with Mycobacterium tuberculosis: 1.8732
  NES: Innate Immune System: 1.345
  NES: Keratan sulfate/keratin metabolism: 1.522
  NES: Mitotic G1 phase and G1/S transition: -1.351
  NES: Mitotic G2-G2/M phases: -1.306
  NES: Response of Mtb to phagocytosis: 1.92
  NES: TBC/RABGAPs: 1.83
  NES: p53-Independent G1/S DNA damage checkpoint: -1.606
  enrichmentScore: Asymmetric localization of PCP proteins: -0.3931
  enrichmentScore: G1/S Transition: -0.3116
  enrichmentScore: G2/M Checkpoints: -0.3959
  enrichmentScore: G2/M Transition: -0.2924
  enrichmentScore: Infection with Mycobacterium tuberculosis: 0.7066
  enrichmentScore: Innate Immune System: 0.2817
  enrichmentScore: Mitotic G2-G2/M phases: -0.2924
  enrichmentScore: Response of Mtb to phagocytosis: 0.737
  enrichmentScore: TBC/RABGAPs: 0.6519
[29]
  remaining activity at 2 µM: 85%
[30]
  remaining activity at 2 µM: 58%
[31]
  remaining activity at 2 µM: 83%
[32]
  remaining activity at 2 µM: 71%
[33]
  remaining activity at 2 µM: 61%
[34]
  remaining activity at 2 µM: 89%
[35]
  remaining activity at 2 µM: 100%
[36]
  remaining activity at 2 µM: 100%
[37]
  remaining activity at 2 µM: 95%
[38]
  remaining activity at 2 µM: 95%
[39]
  remaining activity at 2 µM: 90%
